Test system: Adjuvant Arthritis in Rats
Test: Adjuvant induced arthritis in rats (Freund's adjuvant, right hind paw)
From the text: Adjuvant induced experimental polyarthritis is a specific systemic disease of the rat which shares interesting similarities with rheumatoid arthritis. Specifically, the histology of the two diseases bears a remarkable resemblance as shown by C. M. Pearson et al., Am. J. Pathol. 42, 73 (1963). E. M. Glenn, Am. J. Vet. Res. 27 (116) 339 (1966) has classified adjuvant induced polyarthritis as a crippling and permanent deformity resulting from diffuse connective tissue involvement around certain susceptible joints in the rat. Zahiri et al., Can. Med. Ass. J. 101, 269 (1969) have shown that the fusiform swelling of the distal joints is associated with edema, congestion and synovitis including pannus formation, all of which precede the ultimate destruction of bone and cartilage. Furthermore, Zahiri et al. indicate that the cartilage destruction in the joint is due to an invasive pannus which originates in the marginal synovium and extends across the articular surface to erode it. […] See S. Wong et al., J. Pharm. & Exptl. Ther. 185, 127 (1973) and G. R. Bobalick et al., Agents & Actions 4, 364 (1974).
Groups of three Royal Hart, Wistar strain rats weighing 200±10 grams each were injected intradermally in the right hind paw with Freund's adjuvant (dried human tubercle bacilli in a mineral oil vehicle) at a dose of 2 mg./kg. of body weight. Test compound was administered orally in a 1.5% starch vehicle at various doses once daily on days 0 through 13 post challenge. […] On the 14th and 21st day post challenge the diameter of the injected paw (primary lesion) was measured by micrometer caliper. The volume of inflamed paws were estimated from these measurements and the results are expressed as percent inhibition of swelling as compared to controls. At the same time, the other inflamed sites, such as ears, paws and tail (secondary lesions) were observed and each rat was graded as to degree of inflammation and swelling present. The grading is based on a scale of 0 to 24, where 0 represents a complete absence of induced arthritic nodules and 24 represents the maximum degree of inflammation. The mean grade for each treated group is calculated and the effects of each compound are expressed as percent inhibition of the control grade.

[1] = oral dose 50 mg./kg. once daily days 0-13
[2] = oral dose 100 mg./kg. once daily days 0-13
[3] = oral dose 200 mg./kg. once daily days 0-13
[4] = oral dose 400 mg./kg. once daily days 0-13
[5] = oral dose 0.25 mg./kg. once daily days 0-13
[6] = oral dose 0.5 mg./kg. once daily days 0-13
[7] = oral dose 1 mg./kg. once daily days 0-13
[8] = oral dose 2 mg./kg. once daily days 0-13
[9] = oral dose 18.8 mg./kg. once daily days 0-13
[10] = oral dose 37.5 mg./kg. once daily days 0-13
[11] = oral dose 75 mg./kg. once daily days 0-13
[12] = oral dose 150 mg./kg. once daily days 0-13

CC(=O)Oc1ccccc1C(=O)O [Aspirin] was tested, and the “% Inhibition of Swelling (primary lesion) Day 14” value [1] was 23%, the “Mean Weight Gain Day 14” value [1] was 56 grams and the “% Inhibition of Swelling (primary lesion) Day 21” value [1] was 3%. For the same compound, the “Mean Weight Gain Day 21” value [1] was 44 grams, the “% Inhibition of Swelling (primary lesion) Day 14” value [2] was 36% and the “Mean Weight Gain Day 14” value [2] was 48 grams. For the same compound, the “% Inhibition of Swelling (primary lesion) Day 21” value [2] was 13%, the “Mean Weight Gain Day 21” value [2] was 53 grams and the “% Inhibition of Swelling (primary lesion) Day 14” value [3] was 48%. The “Mean Weight Gain Day 14” value [3] was 40 grams, the “% Inhibition of Swelling (primary lesion) Day 21” value [3] was 27% and the “Mean Weight Gain Day 21” value [3] was 44 grams. The “% Inhibition of Swelling (primary lesion) Day 14” value [4] was 73%, the “Mean Weight Gain Day 14” value [4] was 41 grams and the “% Inhibition of Swelling (primary lesion) Day 21” value [4] was 48%. For the same compound, the “Mean Weight Gain Day 21” value [4] was 55 grams.
N#CCC(=O)c1cccs1 [B-oxo-2-thiophenepropionitrile, β-oxo-2-thiophenepropionitrile] was tested, and the “progression of the arthritis and associated joint deterioration” value (adjuvant arthritic rats, oral dosing, summary of Table I) was “appears to suppress the progression of the arthritis and associated joint deterioration”, the “% Inhibition of Control Grade (secondary lesion) Day 14” value [1] was 46% and the “% Inhibition of Swelling (primary lesion) Day 14” value [1] was 46%. The “Mean Weight Gain Day 14” value [1] was 56 grams, the “% Inhibition of Control Grade (secondary lesion) Day 21” value [1] was 0% and the “% Inhibition of Swelling (primary lesion) Day 21” value [1] was 18%. For the same compound, the “Mean Weight Gain Day 21” value [1] was 48 grams, the “Dead/Treated At 21 Days” value (oral dose 50 mg./kg. once daily days 0-13, adjuvant arthritic rats) was 3/36 and the “% Inhibition of Control Grade (secondary lesion) Day 14” value [2] was 58%. The “% Inhibition of Swelling (primary lesion) Day 14” value [2] was 58%, the “Mean Weight Gain Day 14” value [2] was 52 grams and the “% Inhibition of Control Grade (secondary lesion) Day 21” value [2] was 10%. For the same compound, the “% Inhibition of Swelling (primary lesion) Day 21” value [2] was 42%, the “Mean Weight Gain Day 21” value [2] was 69 grams and the “Dead/Treated At 21 Days” value (oral dose 100 mg./kg. once daily days 0-13, adjuvant arthritic rats) was 3/18. The “% Inhibition of Control Grade (secondary lesion) Day 14” value [3] was 72%, the “% Inhibition of Swelling (primary lesion) Day 14” value [3] was 72% and the “Mean Weight Gain Day 14” value [3] was 34 grams. For the same compound, the “% Inhibition of Control Grade (secondary lesion) Day 21” value [3] was 32%, the “% Inhibition of Swelling (primary lesion) Day 21” value [3] was 29% and the “Mean Weight Gain Day 21” value [3] was 54 grams. For the same compound, the “Dead/Treated At 21 Days” value (oral dose 200 mg./kg. once daily days 0-13, adjuvant arthritic rats) was 2/18.
For COc1ccc2c(c1)c(CC(=O)O)c(C)n2C(=O)c1ccc(Cl)cc1 [Indomethacin], the “% Inhibition of Swelling (primary lesion) Day 14” value [5] was 30%, the “Mean Weight Gain Day 14” value [5] was 51 grams and the “% Inhibition of Swelling (primary lesion) Day 21” value [5] was 4%. For the same compound, the “Mean Weight Gain Day 21” value [5] was 57 grams, the “% Inhibition of Swelling (primary lesion) Day 14” value [6] was 40% and the “Mean Weight Gain Day 14” value [6] was 53 grams. For the same compound, the “% Inhibition of Swelling (primary lesion) Day 21” value [6] was 20%, the “Mean Weight Gain Day 21” value [6] was 51 grams and the “% Inhibition of Swelling (primary lesion) Day 14” value [7] was 46%. For the same compound, the “Mean Weight Gain Day 14” value [7] was 63 grams, the “% Inhibition of Swelling (primary lesion) Day 21” value [7] was 19% and the “Mean Weight Gain Day 21” value [7] was 65 grams. For the same compound, the “% Inhibition of Swelling (primary lesion) Day 14” value [8] was 51%, the “Mean Weight Gain Day 14” value [8] was 68 grams and the “% Inhibition of Swelling (primary lesion) Day 21” value [8] was 24%. The “Mean Weight Gain Day 21” value [8] was 68 grams.
CCCCC1C(=O)N(c2ccccc2)N(c2ccccc2)C1=O [Phenylbutazone] was tested, and the “% Inhibition of Swelling (primary lesion) Day 14” value [9] was 31%, the “Mean Weight Gain Day 14” value [9] was 50 grams and the “% Inhibition of Swelling (primary lesion) Day 21” value [9] was 7%. The “Mean Weight Gain Day 21” value [9] was 45 grams, the “% Inhibition of Swelling (primary lesion) Day 14” value [10] was 56% and the “Mean Weight Gain Day 14” value [10] was 53 grams. For the same compound, the “% Inhibition of Swelling (primary lesion) Day 21” value [10] was 14%, the “Mean Weight Gain Day 21” value [10] was 53 grams and the “% Inhibition of Swelling (primary lesion) Day 14” value [11] was 62%. For the same compound, the “Mean Weight Gain Day 14” value [11] was 51 grams, the “% Inhibition of Swelling (primary lesion) Day 21” value [11] was 28% and the “Mean Weight Gain Day 21” value [11] was 50 grams. The “% Inhibition of Swelling (primary lesion) Day 14” value [12] was 75%, the “Mean Weight Gain Day 14” value [12] was 40 grams and the “% Inhibition of Swelling (primary lesion) Day 21” value [12] was 44%. For the same compound, the “Mean Weight Gain Day 21” value [12] was 50 grams.

From patent US4189497A, “Method of treating arthritic disease” (American Cyanamid Company, priority 1978, dated 1980)
